# Literature values in patent US12465059B2, “Concentrated formic acid composition and its uses thereof” (priority 2018, dated 2025).
# Columns and labels:
# [1] = versus Acetic Acid, the second best strongest straight chain Organic Acid
# [2] = system: Rat; settings: oral
Structure (SMILES),times stronger than Acetic Acid (acid strength) [1] [times],LD 50 [2] [mg/kg]
O=CO [Methanoic acid],10,
[Cl-].[Na+] [Sodium Chloride],,3000
